Measurements from patent publication US5696082A, “Hydroxamic acid derivatives” (British Biotech Pharmaceuticals Limited, priority 1993, dated 1997).

Columns and labels:
collagenase = collagenase (Homo sapiens, UniProt P03956); test: Collagenase inhibition (hydrolysis of acetylated 14C collagen); assay type: biochemical; details: 37° C., 16 hours, pH 7.5, acetylated 14C collagen
Experimental: The potency of compounds of the invention as inhibitors of collagenase was determined by the procedure of Cawston and Barrett, (Anal. Biochem., 99, 340-345, 1979), hereby incorporated by reference, whereby a 1 mM solution of the compound being tested, or a dilution thereof, was incubated at 37° C. for 16 hours with collagen and collagenase (buffered with 25 mM Hepes [Registered Trade Mark], pH 7.5 containing 5 mM CaCl2, 0.05% Brij [Registered Trade Mark] 35 and 0.02% NAN3). The collagen Was acetylated 14C collagen prepared by the method of Cawston and Murphy, (Methods in Enzymology, 80, 711, 1981), hereby incorporated by reference. The samples were centrifuged to sediment undigested collagen, and an aliquot of the radioactive supernatant removed for assay on a scintillation counter as a measure of hydrolysis.

stromelysin = stromelysin (Homo sapiens, UniProt P08254); test: Stromelysin inhibition (hydrolysis of 14C acetylated casein); assay type: biochemical; details: 37°, 16 hours, pH 7.5, 14C acetylated casein
stromelysin, sequence (P08254 100-477): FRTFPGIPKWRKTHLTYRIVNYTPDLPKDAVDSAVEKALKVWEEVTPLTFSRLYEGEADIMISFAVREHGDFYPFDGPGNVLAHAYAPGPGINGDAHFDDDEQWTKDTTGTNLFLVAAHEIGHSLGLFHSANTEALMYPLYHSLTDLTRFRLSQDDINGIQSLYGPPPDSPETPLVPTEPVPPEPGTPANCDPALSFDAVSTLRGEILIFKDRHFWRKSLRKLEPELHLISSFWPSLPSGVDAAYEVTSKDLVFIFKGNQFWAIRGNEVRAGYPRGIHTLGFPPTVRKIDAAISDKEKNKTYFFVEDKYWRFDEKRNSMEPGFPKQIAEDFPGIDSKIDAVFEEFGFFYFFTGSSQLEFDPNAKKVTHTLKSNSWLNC
Experimental: The potency of compounds of the invention as inhibitors of stromelysin was determined by the procedure of Cawston et al, (Biochem. J., 195, 159-165, 1981), hereby incorporated by reference, whereby a 1 mM solution of the compound being tested, or a dilution thereof, was incubated at 37° for 16 hours with stromelysin and ^14 C acetylate casein (buffered with 25 mM Hepes [Registered Trade Mark], pH 7.5 containing 5 mM CaCl2, 0.05% Brij [Registered Trade Mark] 35 and 0.02% NAN3). The casein was acetylated ^14 C casein prepared by the method of Cawston et al (ibid).

collagenase, sequence (P03956 100-469): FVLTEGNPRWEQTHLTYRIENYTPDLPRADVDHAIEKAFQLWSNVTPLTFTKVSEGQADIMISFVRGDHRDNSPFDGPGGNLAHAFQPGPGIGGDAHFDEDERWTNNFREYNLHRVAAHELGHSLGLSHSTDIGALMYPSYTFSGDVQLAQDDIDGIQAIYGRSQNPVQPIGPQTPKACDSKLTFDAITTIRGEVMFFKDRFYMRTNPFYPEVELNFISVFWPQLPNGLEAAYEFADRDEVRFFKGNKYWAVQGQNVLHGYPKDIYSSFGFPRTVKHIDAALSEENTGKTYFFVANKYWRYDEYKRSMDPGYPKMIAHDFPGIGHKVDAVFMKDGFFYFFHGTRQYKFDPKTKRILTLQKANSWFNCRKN

IC50 (collagenase): 20 nM
IC50 (stromelysin): 600 nM
SMILES: CNC(=O)[C@H](Cc1ccc(OCC(=O)N[C@@H]2O[C@H](CO)[C@@H](O)[C@H](O)[C@H]2NC(C)=O)cc1)NC(=O)[C@@H](CC(=O)NO)CC(C)C [Example 3, [4-(N-Hydroxyamino)-2R-isobutylsuccinyl]-O-[(2-acetamido-2-deoxy-β-D-glucopyranosyl)carboxamidomethyl]-L-tyrosine-N-methylamide]
